# Assay results reported in ChEMBL document CHEMBL5150076, “Discovery of Novel Orally Bioavailable Triazoles with Potent and Broad-Spectrum Antifungal Activity In Vitro and In Vivo” (J Med Chem, 2022).
# Columns and labels:
# Candida parapsilosis [1] = test: Antifungal activity against Candida parapsilosis 660; format: functional; settings: Lodderomyces parapsilosis
# [2] = Tmax in Sprague-Dawley rat at 5 mg/kg, po by LC-MS analysis; format: ADME, organism-based; settings: in vivo
# [3] = Induction of hemolysis in rabbit RBC at 64 ug/ml incubated for 1 hr; format: toxicity, cell-based, Oryctolagus cuniculus, Erythrocyte; settings: red blood cells, at 64 µg/mL, read-out: Activity
# Cryptococcus neoformans [4] = test: Antifungal activity against Cryptococcus neoformans 32605; format: functional
# [5] = target: T1, Lanosterol 14-alpha demethylase (Candida albicans (strain SC5314 / ATCC MYA-2876) (Yeast), UniProt P10613); test: Inhibition of CYP51 in Candida albicans SC5314 assessed as sterol level at 0.0625 ug/ml measured after 12 hrs by GC-MS analysis (reference value: 25.23%); parameters: scale not given: the % may be the effect or the level left; settings: dose 0.0625 µg/ml
# Pichia kudriavzevii [6] = test: Antifungal activity against Candida krusei 629; format: functional
# in vitro = settings: human, Caco-2 cells; at 64 µg/mL
# Cryptococcus neoformans [7] = test: Antifungal activity against Cryptococcus neoformans H99 incubated for 72 hrs by microbroth dilution method; format: functional
# Candida tropicalis [8] = test: Antifungal activity against Candida tropicalis 112936; format: functional
# Trichophyton rubrum = test: Antifungal activity against Trichophyton rubrum cmccftla; format: functional
# Nakaseomyces glabratus [9] = test: Antifungal activity against Candida glabrata ATCC2001; format: functional
# [Candida] auris [10] = Antifungal activity against Candida auris BS12372; format: functional; settings: Candidozyma auris
# [11] = Cytotoxicity against HUVEC assessed as cell viability at 64 ug/ml incubated for 24 hrs by CCK-8 assay; format: toxicity, cell-based; settings: human, HUVEC cells, at 64 µg/mL, read-out: Activity
# Candida albicans [12] = test: Antifungal activity against Candida albicans 12#; format: functional
# Candida albicans [13] = test: Antifungal activity against Candida albicans 28#; format: functional
# [14] = target: T1, Lanosterol 14-alpha demethylase; test: Inhibition of CYP51 in Candida albicans SC5314 assessed as lanosterol level at 0.0625 ug/ml measured after 12 hrs by GC-MS analysis (reference value: 2.18%); parameters: scale not given: the % may be the effect or the level left; settings: dose 0.0625 µg/ml
# [15] = target: T1, Lanosterol 14-alpha demethylase; test: Inhibition of CYP51 in Candida albicans SC5314 assessed as ergosterol level at 0.0625 ug/ml measured after 12 hrs by GC-MS analysis (reference value: 72.58%); parameters: scale not given: the % may be the effect or the level left; settings: dose 0.0625 µg/ml
# Candida albicans [16] = test: Antifungal activity against Candida albicans Y0109; format: functional
# Candida albicans [17] = test: Antifungal activity against Candida albicans 20#; format: functional
# Pichia kudriavzevii [18] = test: Antifungal activity against Candida krusei 467; format: functional
# Aspergillus fumigatus [19] = test: Antifungal activity against Aspergillus fumigatus 7544 incubated for 48 hrs by microbroth dilution method; format: functional
# Nakaseomyces glabratus [20] = test: Antifungal activity against Candida glabrata 537; format: functional
# Candida tropicalis [21] = test: Antifungal activity against Candida tropicalis ATCC750; format: functional
# [22] = Oral bioavailability in Sprague-Dawley rat at 5 mg/kg by LC-MS analysis; format: ADME, organism-based; settings: in vivo
# [23] = target: T1, Lanosterol 14-alpha demethylase; test: Inhibition of CYP51 in Candida albicans SC5314 assessed as eburicol level at 0.0625 ug/ml measured after 12 hrs by GC-MS analysis (reference value: 0.00%); parameters: scale not given: the % may be the effect or the level left; settings: dose 0.0625 µg/ml
# Candida albicans [24] = test: Antifungal activity against Candida albicans 14#; format: functional
# [Candida] auris [25] = Antifungal activity against Candida auris D12; format: functional; settings: Candidozyma auris
# Pichia kudriavzevii [26] = test: Antifungal activity against Candida krusei 397; format: functional
# Candida albicans [27] = test: Antifungal activity against Candida albicans 25#; format: functional
# [28] = Half life in Sprague-Dawley rat at 2 mg/kg, iv by LC-MS analysis; format: ADME, organism-based; settings: in vivo
# Candida albicans [29] = test: Antifungal activity against Candida albicans SC5314 incubated for 24 hrs by microbroth dilution method; format: functional
# [30] = AUC(0 to infinity) in Sprague-Dawley rat at 2 mg/kg, iv by LC-MS analysis; format: ADME, organism-based; parameters: time infinity, dose 2 mg/kg, route iv; settings: in vivo
# Candida parapsilosis [31] = test: Antifungal activity against Candida parapsilosis 700; format: functional; settings: Lodderomyces parapsilosis
# Aspergillus fumigatus [32] = test: Antifungal activity against Aspergillus fumigatus 7544 infected in ICR mouse assessed as survival rate at 60 mg/kg, po qd infected with fungus for 2 hrs prior to compound addition for 7 days and measured for 20 days; format: functional; settings: time 20 day
# Candida parapsilosis [33] = test: Antifungal activity against Candida parapsilosis 90018; format: functional; settings: Lodderomyces parapsilosis
# [34] = AUC(0 to infinity) in Sprague-Dawley rat at 5 mg/kg, po by LC-MS analysis; format: ADME, organism-based; parameters: time infinity, dose 5 mg/kg, route po; settings: in vivo
# Candida albicans [35] = test: Antifungal activity against Candida albicans 162; format: functional
# Pichia kudriavzevii [36] = test: Antifungal activity against Candida krusei 463; format: functional
# [Candida] auris [37] = Antifungal activity against Candida auris 791; format: functional; settings: Candidozyma auris
# Aspergillus fumigatus [38] = test: Antifungal activity against Aspergillus fumigatus 7544 infected in ICR mouse assessed as survival rate at 20 mg/kg, po qd infected with fungus for 2 hrs prior to compound addition for 7 days and measured for 20 days; format: functional; settings: time 20 day
# Candida parapsilosis [39] = test: Antifungal activity against Candida parapsilosis 22019; format: functional; settings: Lodderomyces parapsilosis
# Nannizzia gypsea = test: Antifungal activity against Microsporum gypseum; format: functional
# [40] = Half life in Sprague-Dawley rat at 5 mg/kg, po by LC-MS analysis; format: ADME, organism-based; settings: in vivo
# [41] = Cmax in Sprague-Dawley rat at 5 mg/kg, po by LC-MS analysis; format: ADME, organism-based; parameters: dose 5 mg/kg, route po; settings: in vivo
# Candida albicans [42] = test: Antifungal activity against Candida albicans 305; format: functional
# T1 sequence (P10613 whole entry): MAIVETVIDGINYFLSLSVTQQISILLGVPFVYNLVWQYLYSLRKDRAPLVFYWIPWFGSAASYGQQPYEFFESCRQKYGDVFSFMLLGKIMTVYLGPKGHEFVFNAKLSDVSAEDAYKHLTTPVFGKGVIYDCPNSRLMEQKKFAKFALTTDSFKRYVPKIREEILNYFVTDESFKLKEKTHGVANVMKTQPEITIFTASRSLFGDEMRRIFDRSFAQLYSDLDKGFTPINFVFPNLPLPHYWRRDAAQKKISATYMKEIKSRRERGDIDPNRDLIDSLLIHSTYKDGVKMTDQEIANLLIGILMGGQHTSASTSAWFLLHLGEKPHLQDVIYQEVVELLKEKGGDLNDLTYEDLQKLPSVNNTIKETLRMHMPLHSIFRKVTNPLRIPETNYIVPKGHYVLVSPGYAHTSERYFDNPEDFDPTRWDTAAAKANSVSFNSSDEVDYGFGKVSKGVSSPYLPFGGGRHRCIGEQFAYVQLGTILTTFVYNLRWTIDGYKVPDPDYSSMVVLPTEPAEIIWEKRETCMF
compound,measurement,setting,value
C[C@@H](c1ncncc1F)[C@](O)(Cn1cncn1)c1ccc(F)cc1F [VORICONAZOLE],MIC,Candida parapsilosis [1],≤ 0.0313 µg/mL
same,Tmax,[2],53.4 min
same,"hemolysis at 1 h, 64 ug/ml",[3],1.07%
same,MIC,Cryptococcus neoformans [4],0.0156 µg/mL
same,Activity,[5],5.84%
same,MIC,Pichia kudriavzevii [6],0.0625 µg/mL
same,"viability at 24 h, 64 ug/ml",in vitro,103%
same,MIC,Cryptococcus neoformans [7],0.0313 µg/mL
same,MIC,Candida tropicalis [8],> 16 µg/mL
same,MIC,Trichophyton rubrum,0.0625 µg/mL
same,MIC,Nakaseomyces glabratus [9],0.125 µg/mL
same,MIC,[Candida] auris [10],2 µg/mL
same,"viability at 24 h, 64 ug/ml",[11],93.4%
same,MIC,Candida albicans [12],> 64 µg/mL
same,MIC,Candida albicans [13],≤ 0.0313 µg/mL
same,Activity,[14],5.38%
same,Activity,[15],1.63%
same,MIC,Candida albicans [16],0.0156 µg/mL
same,MIC,Candida albicans [17],≤ 0.0313 µg/mL
same,MIC,Pichia kudriavzevii [18],0.125 µg/mL
same,MIC,Aspergillus fumigatus [19],0.25 µg/mL
same,MIC,Nakaseomyces glabratus [20],0.125 µg/mL
same,MIC,Candida tropicalis [21],8 µg/mL
same,bioavailability,[22],26%
same,Activity,[23],87.15%
same,MIC,Candida albicans [24],> 64 µg/mL
same,MIC,[Candida] auris [25],1 µg/mL
same,MIC,Pichia kudriavzevii [26],0.125 µg/mL
same,MIC,Candida albicans [27],> 64 µg/mL
same,half-life,[28],234 min
same,MIC,Candida albicans [29],0.0313 µg/mL
same,AUC(0-inf),[30],7200 ng·h/mL
same,MIC,Candida parapsilosis [31],0.0313 µg/mL
same,Activity,Aspergillus fumigatus [32],100%
same,MIC,Candida parapsilosis [33],≤ 0.0313 µg/mL
same,AUC(0-inf),[34],2530 ng·h/mL
same,MIC,Candida albicans [35],> 64 µg/mL
same,MIC,Pichia kudriavzevii [36],0.0625 µg/mL
same,MIC,[Candida] auris [37],2 µg/mL
same,Activity,Aspergillus fumigatus [38],60%
same,MIC,Candida parapsilosis [39],0.0313 µg/mL
same,MIC,Nannizzia gypsea,0.25 µg/mL
same,half-life,[40],40.2 min
same,Cmax,[41],877 ng/mL
same,MIC,Candida albicans [42],> 16 µg/mL
